Source: PubChem BioAssay AID1963440 (Molecular Pharmacology Branch, DTP, NCI, 2024)
pIC50: −log10 of the molar value. Several values for one entry are separate records, joined by “and”; a condition that tells them apart may be missing. Identical values can stand only once.

Tested on: NCI-H1417 complex spheroids, growth % test/control
Assay: Anticancer human tumor NCI-H1417 cell line growth inhibition [Asc];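 note: spheroids exposed to compounds for 7 days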;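 for viability, T/C: 100% = DMSO vehicle control wells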
Conditions: for viability, T/C: stronger effect = lower value
Summary of the method: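 Concentration series start at each agent's clinical Cmax, or at 10 microM when none is established, and drop in half-log steps; agents are applied alone or together to complex spheroids built with HUVEC and hMSC.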

[1] = curve of first compound, second compound 0.1 µM
[2] = curve of first compound, second compound 0.316 µM
[3] = curve of first compound, second compound 1 µM
[4] = second compound 0.1 µM, first compound 0.0316 µM
[5] = second compound 0.1 µM, first compound 0.1 µM
[6] = second compound 0.1 µM, first compound 0.316 µM
[7] = second compound 0.1 µM, first compound 1 µM
[8] = second compound 0.1 µM, first compound 3.16 µM
[9] = second compound 0.1 µM, first compound 10 µM
[10] = second compound 0.316 µM, first compound 0.0316 µM
[11] = second compound 0.316 µM, first compound 0.1 µM
[12] = second compound 0.316 µM, first compound 0.316 µM
[13] = second compound 0.316 µM, first compound 1 µM
[14] = second compound 0.316 µM, first compound 3.16 µM
[15] = second compound 0.316 µM, first compound 10 µM
[16] = second compound 1 µM, first compound 0.0316 µM
[17] = second compound 1 µM, first compound 0.1 µM
[18] = second compound 1 µM, first compound 0.316 µM
[19] = second compound 1 µM, first compound 1 µM
[20] = second compound 1 µM, first compound 3.16 µM
[21] = second compound 1 µM, first compound 10 µM

| SMILES | pIC50 [1] | pIC50 [2] | pIC50 [3] | viability, T/C [4] | viability, T/C [5] | viability, T/C [6] | viability, T/C [7] | viability, T/C [8] | viability, T/C [9] | viability, T/C [10] | viability, T/C [11] | viability, T/C [12] | viability, T/C [13] | viability, T/C [14] | viability, T/C [15] | viability, T/C [16] | viability, T/C [17] | viability, T/C [18] | viability, T/C [19] | viability, T/C [20] | also measured |
| --- | --- | --- | --- | --- | --- | --- | --- | --- | --- | --- | --- | --- | --- | --- | --- | --- | --- | --- | --- | --- | --- |
| C=C(F)C(=O)N1CCN(c2nc(OCC3CCCN3C)nc3c2CCN(c2cccc4cccc(Cl)c24)C3)CC1CC#N (configuration not stated) + Cc1c(S(C)(=O)=O)c(-c2cc(F)cc(N3CCN(c4ccc(NS(=O)(=O)c5ccc(NC(CCN6CCC(C(=O)OCCCP(=O)(O)O)CC6)CSc6ccccc6)c(S(=O)(=O)C(F)(F)F)c5)cc4)CC3)c2)c(-c2ccc(Cl)cc2)n1C(C)C | 5.91 | > 7.50 | > 7.50 | 75.7% | 80% | 67.9% | 61.1% | 1.57% | 0.85% | 43.5% | 46% | 35.5% | 14% | 0.94% | 0.12% | 12.3% | 9.05% | 5.54% | 2.95% | 0.15% | pIC50 (curve of first compound, second compound 3.16 µM): > 7.50; pIC50 (curve of first compound, second compound 10 µM): > 7.50; viability, T/C [21]: 0.11%; viability, T/C (second compound 3.16 µM, first compound 0.0316 µM): 2.93%; viability, T/C (second compound 3.16 µM, first compound 0.1 µM): 2.78%; viability, T/C (second compound 3.16 µM, first compound 0.316 µM): 2.82%; viability, T/C (second compound 3.16 µM, first compound 1 µM): 2.57%; viability, T/C (second compound 3.16 µM, first compound 3.16 µM): 0.11%; viability, T/C (second compound 3.16 µM, first compound 10 µM): 0.12%; viability, T/C (second compound 10 µM, first compound 0.0316 µM): 2.01%; viability, T/C (second compound 10 µM, first compound 0.1 µM): 2.86%; viability, T/C (second compound 10 µM, first compound 0.316 µM): 3.34%; viability, T/C (second compound 10 µM, first compound 1 µM): 1.29%; viability, T/C (second compound 10 µM, first compound 3.16 µM): 0.21%; viability, T/C (second compound 10 µM, first compound 10 µM): 0.19% |
| O=C(c1cc(Cc2n[nH]c(=O)c3ccccc23)ccc1F)N1CCN(C(=O)C2CC2)CC1 + CNC(C)C(=O)NC1CN(S(=O)(=O)c2cccc(S(=O)(=O)N3CCC4CCC(C(=O)NC(c5ccccc5)c5ccccc5)N4C(=O)C(NC(=O)C(C)NC)C3)c2)CCC2CCC(C(=O)NC(c3ccccc3)c3ccccc3)N2C1=O | 5.32 | 5.26 | 5.27 | 90.3% | 93.5% | 81.8% | 90% | 60.7% | 30.9% | 99.9% | 92.3% | 96.7% | 85.6% | 68.8% | 30% | 97.7% | 90% | 91.2% | 95% | 65.5% | pIC50 (curve of first compound, second compound 0.01 µM): 5.24; pIC50 (curve of first compound, second compound 0.0316 µM): 5.20; viability, T/C (second compound 0.01 µM, first compound 0.0316 µM): 101%; viability, T/C (second compound 0.01 µM, first compound 0.1 µM): 101%; viability, T/C (second compound 0.01 µM, first compound 0.316 µM): 94.7%; viability, T/C (second compound 0.01 µM, first compound 1 µM): 83.6%; viability, T/C (second compound 0.01 µM, first compound 3.16 µM): 65.6%; viability, T/C (second compound 0.01 µM, first compound 10 µM): 36.1%; viability, T/C (second compound 0.0316 µM, first compound 0.0316 µM): 102%; viability, T/C (second compound 0.0316 µM, first compound 0.1 µM): 87.8%; viability, T/C (second compound 0.0316 µM, first compound 0.316 µM): 88.5%; viability, T/C (second compound 0.0316 µM, first compound 1 µM): 100%; viability, T/C (second compound 0.0316 µM, first compound 3.16 µM): 71.5%; viability, T/C (second compound 0.0316 µM, first compound 10 µM): 35.8%; viability, T/C [21]: 32% |
| C#Cc1c(F)ccc2cc(O)cc(-c3ncc4c(N5CC6CCC(C5)N6)nc(OCC56CCCN5CC(F)C6)nc4c3F)c12 (configuration not stated) |  |  |  |  |  |  |  |  |  |  |  |  |  |  |  |  |  |  |  |  | viability, T/C (compound 0.0316 µM): 93% and 102% and 110%; viability, T/C (compound 0.1 µM): 89.5% and 97.4% and 102%; viability, T/C (compound 0.316 µM): 94.3% (2×) and 101%; viability, T/C (compound 1 µM): 106% and 98.8% and 97.6%; viability, T/C (compound 3.16 µM): 96.5% and 100% and 101%; viability, T/C (compound 10 µM): 72.5% and 96.5% and 83%; pIC50 (curve of compound): < 5.00 |
